In paper PMC7708434 (Biochimica et biophysica acta. General subjects, 2020) one finds X-ray crystal structure and Kd data, which are given here for two compounds.

One may read the Kd as the equilibrium constant for the complex coming apart. A lower Kd goes with tighter binding.

Common to all, as to format: binding
The target in assay [1] is T1, 4-hydroxy-tetrahydrodipicolinate reductase (MtDapB) (Mycobacterium tuberculosis, UniProt P9WP23). As to the kind of experiment: X-ray crystal structure.
The target in assay [2] is T2, 4-hydroxy-tetrahydrodipicolinate reductase (VvDapB) (Vibrio vulnificus, UniProt Q8DEM0). In words: X-ray crystal structure.
In assay [3] the target is T2, 4-hydroxy-tetrahydrodipicolinate reductase (VvDapB). As to the kind of experiment: ITC. On the technique in general: Isothermal titration calorimetry measures the heat released or taken up as one component is titrated into another.
Assay [4] addresses T1, 4-hydroxy-tetrahydrodipicolinate reductase (MtDapB). As to the kind of experiment: ITC.

Each structure is given as a SMILES string.

T1 sequence (P9WP23 whole entry): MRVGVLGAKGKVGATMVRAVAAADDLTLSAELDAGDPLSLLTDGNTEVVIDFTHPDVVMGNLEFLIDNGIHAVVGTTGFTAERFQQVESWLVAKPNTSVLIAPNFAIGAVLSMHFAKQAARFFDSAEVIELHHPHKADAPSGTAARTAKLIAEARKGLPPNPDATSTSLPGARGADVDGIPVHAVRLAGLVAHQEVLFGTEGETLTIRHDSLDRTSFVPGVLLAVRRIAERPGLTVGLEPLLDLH
T2 sequence (Q8DEM0 whole entry): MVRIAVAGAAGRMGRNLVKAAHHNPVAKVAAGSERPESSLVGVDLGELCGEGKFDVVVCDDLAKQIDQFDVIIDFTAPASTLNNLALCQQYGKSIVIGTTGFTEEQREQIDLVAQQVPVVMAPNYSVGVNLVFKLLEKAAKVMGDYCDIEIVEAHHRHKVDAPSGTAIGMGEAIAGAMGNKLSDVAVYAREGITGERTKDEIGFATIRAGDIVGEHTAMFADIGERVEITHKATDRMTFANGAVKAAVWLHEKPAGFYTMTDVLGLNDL

As for `NC(=O)c1ccc[n+]([C@@H]2O[C@H](COP(=O)([O-])OP(=O)(O)OC[C@H]3O[C@@H](n4cnc5c(N)ncnc54)[C@H](O)[C@@H]3O)[C@@H](O)[C@H]2O)c1` [NAD+], the X-ray crystal structure entry was “apo MtDapB (PDB ID: 5TEK chain A) and NAD^+ bound MtDapB (PDB ID: 5UGV chain A) structures” in assay [1]; “NADH was used for crystallization, in all cases we observed NAD^+ in the crystal structures” in assay [2].
Turning to `NC(=O)C1=CN([C@@H]2O[C@H](COP(=O)(O)OP(=O)(O)OC[C@H]3O[C@@H](n4cnc5c(N)ncnc54)[C@H](O)[C@@H]3O)[C@@H](O)[C@H]2O)C=CC1` [NADH], the Kd worked out at 3.9 ± 1.2 µM in assay [3] and 3.6 ± 0.4 µM in assay [4].
